From ChEMBL document CHEMBL4765457, “Targeting dual tolerant regions of binding pocket: Discovery of novel morpholine-substituted diarylpyrimidines as potent HIV-1 NNRTIs with significantly improved water solubility” (Eur J Med Chem, 2020) come the findings set out here.

What is called EC50 is the concentration at which the effect is half-maximal. What is called CC50 is the concentration that lowers cell viability or growth by half.

Data set [1] has as its system Human immunodeficiency virus 1. The experiment in a line: Antiviral activity against HIV1 3B infected in human MT4 cells assessed as virus-induced cytopathic effect incubated for 5 days by MTT assay. As to conditions: Human immunodeficiency virus 1, 3B, MT4, 120 h. Format: functional, organism-based.
Data set [2] deals with Human immunodeficiency virus 1. The experiment in a line: Antiviral activity against HIV1 RES056 infected in human MT4 cells assessed as inhibition of virus-induced cytopathic effect incubated for 5 days by MTT assay. As to conditions: Human immunodeficiency virus 1, RES056, MT4, 120 h. It counts as functional, organism-based. Background: Cytopathic effects are the visible damage that an infection or toxin causes in cultured cells.

Data set [3] in a line: Cytotoxicity against human MT4 cells assessed as reduction in cell viability incubated for 5 days by MTT assay. As to conditions: time 5 day. It counts as cell-based. (In general: Formazan colour is commonly taken as a measure of viable cells.)
A short description of data set [4]: Selectivity index, ratio of CC50 for human MT4 cells to EC50 for antiviral activity against HIV1 3B infected in human MT4 cells. It counts as toxicity, cell-based. The conditions noted are these: read-out: Ratio CC50/EC50.
Data set [5] can be described thus: Selectivity index, ratio of CC50 for human MT4 cells to EC50 for antiviral activity against HIV1 RES056 infected in human MT4 cells. It counts as toxicity, cell-based. As to conditions: read-out: Ratio CC50/EC50.
Data set [6] concerns Human immunodeficiency virus 1. As to the kind of experiment: Antiviral activity against HIV1 harboring RT L100I mutant infected in human MT4 cells assessed as inhibition of virus-induced cytopathic effect incubated for 5 days by MTT assay. It counts as functional, organism-based. The conditions noted are these: Human immunodeficiency virus 1, MT4, 120 h.
In data set [7] the test system is Human immunodeficiency virus 1. As to the kind of experiment: Antiviral activity against HIV1 harboring RT K103N mutant infected in human MT4 cells assessed as inhibition of virus-induced cytopathic effect incubated for 5 days by MTT assay. It counts as functional, organism-based. The conditions noted are these: Human immunodeficiency virus 1, MT4, 120 h.
The subject of data set [8] is Human immunodeficiency virus 1. As to the kind of experiment: Antiviral activity against HIV1 harboring RT Y181C mutant infected in human MT4 cells assessed as inhibition of virus-induced cytopathic effect incubated for 5 days by MTT assay. It counts as functional, organism-based. The conditions noted are these: Human immunodeficiency virus 1, MT4, 120 h.
Data set [9] has as its system Human immunodeficiency virus 1. As to the kind of experiment: Antiviral activity against HIV1 harboring RT Y188L mutant infected in human MT4 cells assessed as inhibition of virus-induced cytopathic effect incubated for 5 days by MTT assay. Format: functional, organism-based. The conditions noted are these: Human immunodeficiency virus 1, MT4, 120 h.
In data set [10] the test system is Human immunodeficiency virus 1. The experiment in a line: Antiviral activity against HIV1 harboring RT E138K mutant infected in human MT4 cells assessed as inhibition of virus-induced cytopathic effect incubated for 5 days by MTT assay. It counts as functional, organism-based. The conditions noted are these: Human immunodeficiency virus 1, MT4, 120 h.
Data set [11] relates to Human immunodeficiency virus 1. The experiment in a line: Antiviral activity against HIV1 harboring RT F227L/V106Amutant infected in human MT4 cells assessed as inhibition of virus-induced cytopathic effect incubated for 5 days by MTT assay. It counts as functional, organism-based. As to conditions: Human immunodeficiency virus 1, MT4, 120 h.
For data set [12], the system named is Human immunodeficiency virus 1. The experiment in a line: Potency index, ratio of nevirapine EC50 to test compound EC50 for antiviral activity against HIV1 harboring K103N mutant infected in human MT4 cells. Format: functional.
The subject of data set [13] is Human immunodeficiency virus 1. As to the kind of experiment: Potency index, ratio of lamivudine EC50 to test compound EC50 for antiviral activity against HIV1 harboring K103N mutant infected in human MT4 cells. It counts as functional.
Data set [14] is described as follows: Resistance index, ratio of EC50 for antiviral activity against HIV1 expressing RT L100I mutant infected in human MT4 cells to EC50 for antiviral activity against HIV1 3B infected in human MT4 cells. It counts as functional.
Data set [15] is described as follows: Resistance index, ratio of EC50 for antiviral activity against HIV1 expressing RT K103N mutant infected in human MT4 cells to EC50 for antiviral activity against HIV1 3B infected in human MT4 cells. It counts as functional.
Data set [16] in a line: Resistance index, ratio of EC50 for antiviral activity against HIV1 expressing RT Y181C mutant infected in human MT4 cells to EC50 for antiviral activity against HIV1 3B infected in human MT4 cells. Format: functional.
A short description of data set [17]: Resistance index, ratio of EC50 for antiviral activity against HIV1 expressing RT Y188L mutant infected in human MT4 cells to EC50 for antiviral activity against HIV1 3B infected in human MT4 cells. It counts as functional.
Data set [18] in a line: Resistance index, ratio of EC50 for antiviral activity against HIV1 expressing RT E138K mutant infected in human MT4 cells to EC50 for antiviral activity against HIV1 3B infected in human MT4 cells. It counts as functional.
The nature of data set [19]: Resistance index, ratio of EC50 for antiviral activity against HIV1 expressing RT F227L/V106A mutant infected in human MT4 cells to EC50 for antiviral activity against HIV1 3B infected in human MT4 cells. It counts as functional.

Consider `Cc1cc(C#N)cc(C)c1Oc1nc(NC2CCN(CCN3CCOCC3)CC2)nc2cc(F)ccc12`, for which the EC50 in [1] is 241 nM; in data set [2], greater than 16900 nM; in data set [6] it was 1240 nM; in [7], 522 nM; in data set [8], 1350 nM; in data set [9] it was 2400 nM. Further, the values for the half-maximal effective concentration (EC50) in data set [10] and in data set [11] were 963 nM and 2920 nM, respectively. For the same compound, the CC50 at 120 h in [3] is 16900 nM. Also, the selectivity ratio is 70 in data set [4] and less than 1 in data set [5]. Besides, the “Ratio EC50” value in [12] is reported as 10; in [13] it was 8; in data set [14], 5.1; in data set [15], 2.2; in [16], 5.6; in data set [17], 10. Moreover, the figures for the “Ratio EC50” value in data set [18] and in data set [19] were 4 and 12.1, respectively.
